Common to all, as to format: biochemical
For one test, the target named is T1, human 20S proteasome (Homo sapiens, UniProt P20618+P28074).
T1 construct: purchased
The test is described as follows: Kinetic assay of 20S proteasome chymotryptic activity (Suc-LLVY-AMC). The note with it: Suc-LLVY-AMC substrate, pH 7.8, 37° C., competitive inhibition model. The protocol:
Kinetic assays were performed on a fluorescent 96-well plate reader with human 20S proteasome. Chymotryptic activity was measured in 20 mM HEPES, 0.5 mM EDTA, 0.037% SDS, pH 7.8 at 37° C., using 0-100 μM Suc-LLVY-AMC as the fluorogenic substrate, and […] 4.42×10^−4 mg/100 μL enzyme.
Triplicates of velocities (fluorescence vs time) were obtained at various concentrations of substrate ([…]) and aza-peptide inhibitor (0, 25, 50, 100 μM) then converted to specific activity using Lambert-Beer's law and enzyme concentration.
Enzyme specific activities were fit to a competitive inhibition model using GraphPad Prism software for nonlinear fitting.

A further test addresses T2, caspase-3 (Homo sapiens, UniProt P42574).
T2 construct: Professor Guy Salvesen, Burnham Institute (gift, not a purchase)
T2 sequence (P42574 29-175 limits assumed): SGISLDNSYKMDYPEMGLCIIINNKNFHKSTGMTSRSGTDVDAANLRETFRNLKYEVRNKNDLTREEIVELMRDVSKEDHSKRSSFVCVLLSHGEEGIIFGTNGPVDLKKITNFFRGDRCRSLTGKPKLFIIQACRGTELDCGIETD
The test can be described thus: Caspase 3 inhibition kinetic assay. The protocol: (§1) Generally, for the 20S proteasome the enzymatic hydrolysis of fluorogenic substrate Suc-LLVY-AMC by the 20S proteasome is monitored continuously for chymotrypsin-like (CT-L) activity at λexc=360, λem=460 nm for 45 min at 30° C. under standard assay conditions (Assay buffer: pH 7.5, 20 mM Tris, 0.02% w/v SDS, 1 mM EDTA, 2% v/v DMSO). Caspase activities are measured in 100 mM HEPES, 10% sucrose, 0.1% CHAPS, 10 mM DTT, pH 7.5 and 25° C.^21 Legumain activity is measured in 0.1 M citrate-phosphate buffer at pH 6.8 containing 4 mM DTT with Cbz-AAN-AMC as the substrate^9b. Activity of the MALT1 active fragment (aa325-769) is detected by cleavage of the tetra-peptide substrate LRSR-AMC (7-amino-4-methylcoumarin) that results in fluorescence emission when AMC is released. IC50 values are determined for the new compounds by dose-dependent inhibition. In parallel, well-characterized MALT1 inhibitors (e.g. Z—VRPR-FMIK, mepazine, MI-2) are used as reference compounds. Cathepsin B activity is performed in 0.1 M phosphate, 1.25 mM EDTA, 0.01% Brij, pH 6.0. Papain activity is measured in 10 mM DTT, 50 mM phosphate, pH 6.2. Trypsin activity is performed in 0.046 M Tris/HCl buffer at pH 8.1 with 0.0115 M CaCl2.
(§2) Results from kinetic assays for compounds tested against the 20S proteasome, caspase-3, and legumain are shown in Table 4, Table 5, and Table 6, respectively.

In the next test the target is legumain. The test is described as follows: Legumain inhibition kinetic assay. The protocol: as §1, §2

One may read the Ki as the dissociation constant of the complex between target and ligand, obtained from inhibition or displacement. Low values mean a stronger hold on the target, high ones a looser hold on the target. For the compound `CC(=O)C(=O)N(C)NC(=O)[C@H](CC(C)C)NC(=O)[C@H](CC(C)C)NC(=O)OCc1ccccc1` [Z-Leu-Leu-AAla-COMe, Benzyl ((S)-4-methyl-1-(((S)-4-methyl-1-(2-methyl-2-(2-oxopropanoyl)hydrazinyl)-1-oxopentan-2-yl)amino)-1-oxopentan-2-yl)carbamate], the Ki on human 20S proteasome came to 73 µM.
What is called IC50 is the concentration at which inhibition is half-maximal. The low end stands for higher potency, the high end for lower potency. `CC(=O)C(=O)N(CC(=O)O)NC(=O)[C@@H](NC(=O)[C@H](CCC(=O)O)NC(=O)[C@H](CC(=O)O)NC(=O)OCc1ccccc1)C(C)C` [Z-Asp-Glu-Val-AAsp-COMe, (5S,8S,11S)-8-(2-carboxyethyl)-5-(carboxymethyl)-11-isopropyl-3,6,9,12-tetraoxo-14-(2-oxopropanoyl)-1-phenyl-2-oxa-4,7,10,13,14-pentaazahexadecan-16-oic acid] came in with an IC50 against caspase-3 of 0.055 µM.
As for `C[C@H](NC(=O)OCc1ccccc1)C(=O)N[C@@H](C)C(=O)NN(CC(N)=O)C(=O)C(=O)Cc1ccccc1` [Z-Ala-Ala-AAsn-COBn, Benzyl((S)-1-(((S)-1-(2-(2-amino-2-oxoethyl)-2-(2-oxo-3-phenylpropanoyl) hydrazinyl)-1-oxopropan-2-yl)amino)-1-oxopropan-2-yl)carbamate], the “Ki (μM)” value at legumain is on record as “Weak”.
The compound `CC(C)C[C@H](NC(=O)OCc1ccccc1)C(=O)N[C@@H](Cc1ccccc1)C(=O)NN(CC(C)C)C(=O)C(=O)Cc1ccccc1` [Z-Leu-Phe-ALeu-COBn, Benzyl ((S)-1-(((S)-1-(2-isobutyl-2-(2-oxo-3-phenylpropanoyl)hydrazinyl)-1-oxo-3-phenylpropan-2-yl)amino)-4-methyl-1-oxopentan-2-yl)carbamate] showed an inhibitory constant (Ki) at human 20S proteasome of 55 µM.
Still for that read-out and setting: then `CC(C)C[C@H](NC(=O)OCc1ccccc1)C(=O)N[C@@H](CC(C)C)C(=O)NNC(=O)C=O` [Z-Leu-Leu-AGly-COH, Benzyl ((S)-4-methyl-1-(((S)-4-methyl-1-oxo-1-(2-(2-oxoacetyl)hydrazinyl)pentan-2-yl)amino)-1-oxopentan-2-yl)carbamate], with 35 µM; and `CC(=O)C(=O)N(CC(C)C)NC(=O)[C@H](Cc1ccccc1)NC(=O)[C@H](CC(C)C)NC(=O)OCc1ccccc1` [Z-Leu-Phe-ALeu-COMe, Benzyl((S)-1-(((S)-1-(2-isobutyl-2-(2-oxopropanoyl)hydrazinyl)-1-oxo-3-phenylpropan-2-yl)amino)-4-methyl-1-oxopentan-2-yl)carbamate], with 47 µM.
In the case of `CC(C)[C@H](NC(=O)[C@H](CCC(=O)O)NC(=O)[C@H](CC(=O)O)NC(=O)OCc1ccccc1)C(=O)N[C@H](C=O)CC(=O)O` [Z-Asp-Glu-Val-Asp-COH, reference compound], the IC50 at caspase-3 is 0.0045 µM.
As for `CCOC(=O)C(=O)N(CC(N)=O)NC(=O)[C@H](C)NC(=O)[C@H](C)NC(=O)OCc1ccccc1` [Z-Ala-Ala-AAsn-COOEt, Ethyl 2-(1-(2-amino-2-oxoethyl)-2-(((benzyloxy)carbonyl)-L-alanyl-L-alanyl)hydrazinyl)-2-oxoacetate], on legumain, the “Ki (μM)” value is listed as “Weak”.
As for `CCOC(=O)C(=O)N(CC(C)C)NC(=O)[C@H](CC(C)C)NC(=O)[C@H](CC(C)C)NC(=O)OCc1ccccc1` [Z-Leu-Leu-ALeu-COOEt, Ethyl 2-(2-(((benzyloxy)carbonyl)-L-leucyl-L-leucyl)-1-isobutylhydrazinyl)-2-oxoacetate], the “Ki (μM)” value on human 20S proteasome is on record as “weak”.
Take `CC(=O)C(=O)NNC(=O)[C@H](CC(C)C)NC(=O)[C@H](CC(C)C)NC(=O)OCc1ccccc1` [Z-Leu-Leu-AGly-COMe, Benzyl((S)-4-methyl-1-(((S)-4-methyl-1-oxo-1-(2-(2-oxopropanoyl)hydrazinyl)pentan-2-yl)amino)-1-oxopentan-2-yl)carbamate]: the inhibitory constant (Ki) at human 20S proteasome worked out at 29 µM.
Still for that read-out and setting: with `CC(C)C[C@H](NC(=O)OCc1ccccc1)C(=O)N[C@@H](CC(C)C)C(=O)NN(C)C(=O)C=O` [Z-Leu-Leu-AAla-COH, Benzyl ((S)-4-methyl-1-(((S)-4-methyl-1-(2-methyl-2-(2-oxoacetyl)hydrazinyl)-1-oxopentan-2-yl)amino)-1-oxopentan-2-yl)carbamate] the figure was 44 µM.
Still for that read-out and setting: with `CC(C)C[C@H](NC(=O)OCc1ccccc1)C(=O)N[C@@H](CC(C)C)C(=O)NN(CC(C)C)C(=O)C=O` [Z-Leu-Leu-ALeu-COH, Benzyl ((S)-1-(((S)-1-(2-isobutyl-2-(2-oxoacetyl)hydrazinyl)-4-methyl-1-oxopentan-2-yl)amino)-4-methyl-1-oxopentan-2-yl)carbamate] the figure was 24 µM; with `CC(C)C[C@H](NC(=O)OCc1ccccc1)C(=O)N[C@@H](CC(C)C)C(=O)NN(CC(C)C)C(=O)C(=O)Cc1ccccc1` [Z-Leu-Leu-ALeu-COBn, Benzyl ((S)-1-(((S)-1-(2-isobutyl-2-(2-oxo-3-phenylpropanoyl)hydrazinyl)-4-methyl-1-oxopentan-2-yl)amino)-4-methyl-1-oxopentan-2-yl)carbamate], 81 µM.
Still for that read-out and setting: with `CC(=O)C(=O)N(CC(C)C)NC(=O)[C@H](CC(C)C)NC(=O)[C@H](CC(C)C)NC(=O)OCc1ccccc1` [Z-Leu-Leu-ALeu-COMe, Benzyl((S)-1-(((S)-1-(2-isobutyl-2-(2-oxopropanoyl)hydrazinyl)-4-methyl-1-oxopentan-2-yl)amino)-4-methyl-1-oxopentan-2-yl)carbamate] the figure was 27 µM.
With `CC(=O)C(=O)N(CC(N)=O)NC(=O)[C@H](C)NC(=O)[C@H](C)NC(=O)OCc1ccccc1` [Z-Ala-Ala-AAsn-COMe, Benzyl ((S)-1-(((S)-1-(2-(2-amino-2-oxoethyl)-2-(2-oxopropanoyl)hydrazinyl)-1-oxopropan-2-yl)amino)-1-oxopropan-2-yl)carbamate], on legumain, the “Ki (μM)” value is “Weak”.

Source of the values: patent publication US20190055283A1, “AZA-PEPTIDE ALDEHYDES AND KETONES” (OHIO STATE INNOVATION FOUNDATION, priority 2016, published 2019).
